Experimental data published in the supplement of paper PMC8882468.

Experiments:
Assay in all cases: CTG-3D luminescence at 96 h relative to day-0 seeding control (ratio to day 0); higher = more growth / less cytotoxicity; PDxO 3D drug screen, 96 h, CTG-3D normalised to day-0 seeding control.
[1] = test system: HCI-005.E2 (organoid from a breast cancer xenograft with a HER2-positive history)
[2] = test system: HCI-008 (organoid from a HER2-enriched breast cancer xenograft)
[3] = test system: HCI-010 (organoid from a breast cancer xenograft)
[4] = test system: HCI-015 (organoid from a triple-negative breast cancer xenograft)
[5] = test system: HCI-012 (organoid from a breast cancer xenograft)
[6] = test system: HCI-019 (organoid from a triple-negative breast cancer xenograft)
[7] = test system: HCI-011.E2 (organoid from an ER-positive breast cancer xenograft)

CS(=O)(=O)c1ccc(C(=O)Nc2ccc(Cl)c(-c3ccccn3)c2)c(Cl)c1 [vismodegib]
CTG-3D luminescence at 96 h
Details | 12.5 pM | 0.00025 µM | 0.005 µM | 0.1 µM | 1 µM | 10 µM | 100 µM | 625 fM
[1] | 1.47 | 1.38 | 1.47 | 1.57 | 1.45 | 1.3 | 0.318 | 1.47
[7] | 1.44 | 1.41 | 1.58 | 1.72 | 1.61 | 1.85 | 1.13 | 1.67

CTG-3D luminescence at 96 h
Details | 12.5 pM | 0.00025 µM | 0.005 µM | 0.1 µM | 1 µM | 10 µM | 100 µM | 625 fM
[2], days in culture: 228 | 1.56 | 1.74 | 1.17 | 1.72 | 1.46 | 1.46 | 0.622 | 1.79
[2], days in culture: 244 | 1.7 | 2.21 | 1.95 | 2.27 | 2.19 | 2.07 | 1.01 | 2.24
[3], days in culture: 52 | 1.83 | 1.98 | 2.08 | 2.26 | 2.4 | 2.15 | 0.825 | 1.78
[3], days in culture: 65 | 1.54 | 1.74 | 1.56 | 1.6 | 1.71 | 1.5 | 0.574 | 1.59
[3], days in culture: 103 | 2.84 | 3.06 | 3 | 3.14 | 2.91 | 2.62 | 1.52 | 2.8
[4], days in culture: 172 | 2.23 | 2 | 1.97 | 1.34 | 1.97 | 1.25 | 0.214 | 3.01
[4], days in culture: 191 | 2.65 | 1.16 | 1.77 | 1.1 | 1.7 | 1.15 | 0.207 | 1.54
[4], days in culture: 218 | 1.6 | 1.48 | 1.63 | 1.61 | 1.73 | 1.61 | -0.148 | 2
[5], days in culture: 143 | 2.03 | 2.38 | 2.4 | 2.49 | 2.42 | 2.55 | 0.427 | 1.88
[5], days in culture: 162 | 2.64 | 2.72 | 2.08 | 2.88 | 2.4 | 2.69 | 0.492 | 3
[5], days in culture: 201 | 2.82 | 2.26 | 1.72 | 1.56 | 2.33 | 1.8 | 0.943 | 1.59
[6], days in culture: 110 | 1.59 | 1.68 | 1.23 | 2.46 | 1.99 | 2.18 | 1.03 | 2.06
[6], days in culture: 131 | 2.17 | 2.54 | 3.59 | 3.93 | 2.82 | 2.53 | 1.56 | 3.4
[6], days in culture: 152 | 3.1 | 2.87 | 2.59 | 1.83 | 2.08 | 1.82 | 0.857 | 1.86
[7], days in culture: 74 | 2.31 | 1.93 | 1.98 | 2.31 | 2.12 | 3.48 | 1.49 | 2.36
